Measurements from PubChem BioAssay (NCI).
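GI50: concentration for 50% inhibition of growth. Definition used: TGI = concentration required for complete inhibition of growth.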

Legend:
Test in all cases: NCI tumour cell line growth inhibition, 384-well format
[1] = test system: MCF7 breast
[2] = test system: IGROV1 ovarian
[3] = test system: HOP-62 NSCLC
[4] = test system: T-47D breast
[5] = test system: OVCAR-3 ovarian
[6] = test system: BT-549 breast
[7] = test system: A549 NSCLC
[8] = test system: NCI-H460 NSCLC
[9] = test system: SK-MEL-5 melanoma
[10] = test system: SNB-75 CNS
[11] = test system: SK-OV-3 ovarian
[12] = test system: SNB-19 CNS
[13] = test system: SF-539 CNS
[14] = test system: NCI-H23 lung
[15] = test system: NCI-H322M lung
[16] = test system: MDA-MB-468 breast
[17] = test system: HOP-92 NSCLC
[18] = test system: UO-31 renal
[19] = test system: KM12 colon
[20] = test system: SW-620 colon
[21] = test system: EKVX NSCLC
[22] = test system: UACC-257 melanoma
[23] = test system: HS 578T breast
[24] = test system: U251 glioblastoma
[25] = test system: PC-3 prostate
[26] = test system: M14 melanoma
[27] = test system: ACHN renal
[28] = test system: LOX IMVI melanoma
[29] = test system: NCI-H522 lung
[30] = test system: OVCAR-4 ovarian
[31] = test system: SK-MEL-28 melanoma
[32] = test system: CCRF-CEM leukemia
[33] = test system: SR leukemia
[34] = test system: SN12C renal
[35] = test system: HCT-116 colon
[36] = test system: A498 renal
[37] = test system: SF-268 CNS
[38] = test system: HT29 colon
[39] = test system: DU-145 prostate
[40] = test system: OVCAR-5 ovarian
[41] = test system: RXF 393 renal
[42] = test system: MDA-MB-435 melanoma
[43] = test system: 786-0 renal
[44] = test system: HCC-2998 colon
[45] = test system: MALME-3M melanoma
[46] = test system: TK-10 renal
[47] = test system: HCT-15 colon
[48] = test system: MDA-MB-231 breast
[49] = test system: SF-295 CNS
[50] = test system: HL-60(TB) leukemia
[51] = test system: NCI-H226 lung
[52] = test system: CAKI-1 renal

O=C(Nc1cn[nH]c1-c1nc2ccc(CN3CCOCC3)cc2[nH]1)NC1CC1
GI50 [1]: 345 nM
TGI [1]: 7390 nM
GI50 [2]: 633 nM
TGI [2]: > 100000 nM
GI50 [3]: 184 nM
TGI [3]: 1390 nM
GI50 [4]: 2200 nM
TGI [4]: 6040 nM
GI50 [5]: 156 nM
TGI [5]: 382 nM
GI50 [6]: 58.7 nM
TGI [6]: 386 nM
GI50 [7]: 800 nM
TGI [7]: > 100000 nM
GI50 [8]: 48.7 nM
TGI [8]: 1590 nM
GI50 [9]: 1260 nM
TGI [9]: 2670 nM
GI50 [10]: 38.1 nM
TGI [10]: 113 nM
GI50 [11]: 259 nM
TGI [11]: 2280 nM
GI50 [12]: 256 nM
TGI [12]: 1730 nM
GI50 [13]: 168 nM
TGI [13]: 453 nM
GI50 [14]: 88.2 nM
TGI [14]: 2030 nM
GI50 [15]: 1290 nM
TGI [15]: 3480 nM
GI50 [16]: 16.9 nM
TGI [16]: 36.7 nM
GI50 [17]: 172 nM
TGI [17]: 10800 nM
GI50 [18]: 111 nM
TGI [18]: 1210 nM
GI50 [19]: 1040 nM
TGI [19]: 3490 nM
GI50 [20]: 36.3 nM
TGI [20]: > 100000 nM
GI50 [21]: 196 nM
TGI [21]: 4490 nM
GI50 [22]: 2090 nM
TGI [22]: 4190 nM
GI50 [23]: 33.6 nM
TGI [23]: 73.5 nM
GI50 [24]: 228 nM
TGI [24]: 1300 nM
GI50 [25]: 299 nM
TGI [25]: 13900 nM
GI50 [26]: 364 nM
TGI [26]: 2210 nM
GI50 [27]: 413 nM
TGI [27]: > 100000 nM
GI50 [28]: 248 nM
TGI [28]: 1120 nM
GI50 [29]: 237 nM
TGI [29]: 835 nM
GI50 [30]: 1120 nM
TGI [30]: 5390 nM
GI50 [31]: 1350 nM
TGI [31]: 2910 nM
TGI [32]: 28 nM
TGI [33]: 18.7 nM
GI50 [34]: 1030 nM
TGI [34]: 2420 nM
GI50 [35]: 71 nM
TGI [35]: > 100000 nM
GI50 [36]: 289 nM
TGI [36]: 6650 nM
GI50 [37]: 103 nM
TGI [37]: 436 nM
GI50 [38]: 75.3 nM
TGI [38]: > 100000 nM
GI50 [39]: 651 nM
TGI [39]: 70400 nM
GI50 [40]: 1810 nM
TGI [40]: > 100000 nM
GI50 [41]: 22.3 nM
TGI [41]: 61.2 nM
GI50 [42]: 1470 nM
TGI [42]: 3370 nM
GI50 [43]: 261 nM
TGI [43]: 10200 nM
GI50 [44]: 1360 nM
TGI [44]: 2810 nM
GI50 [45]: 1420 nM
TGI [45]: 3080 nM
GI50 [46]: 210 nM
TGI [46]: 706 nM
GI50 [47]: 1540 nM
TGI [47]: 11600 nM
GI50 [48]: 322 nM
TGI [48]: 2540 nM
GI50 [49]: 187 nM
TGI [49]: 1210 nM
GI50 [50]: 13 nM
TGI [50]: 28.1 nM
GI50 [51]: 85.8 nM
TGI [51]: 273 nM
GI50 [52]: 71.8 nM
TGI [52]: > 100000 nM
